According to patent US11679107B2 (Eisai R&D Management Co., Ltd., priority 2018, dated 2023):
Where two headings read alike, the source gives them in different places.

Tests used:
SF3b complexes = molecular target: T1, SF3b complexes (Homo sapiens, UniProt O75533+Q7RTV0); experiment: Scintillation proximity assay (SPA) with [3H]-labelled pladienolide probe; type: binding; conditions: SF3B1 (WT); geometric mean; read-out: SPA-ATS GMean IC50 (nM) SF3B1 (WT)
T1 construct: endogenous in cells; host or cells: Nuclear extracts; A HeLa S3 extract preparation is described for the in vitro splicing assay
Method: Scintillation Proximity Assay (SPA) with [^3-H]-Labelled Pladienolide Probe
(§1) Batch immobilization of anti-SF3B1 antibody (MBL) to anti-mouse PVT SPA scintillation beads (PerkinElmer) was prepared as follows: for every 2.5 mg of nuclear extracts, 5 μg anti-SF3B1 antibody and 1.5 mg of beads were mixed in 150 μl PBS. The antibody-bead mixture was incubated for 30 min at RT and centrifuged at 18,000 g for 5 min. 150 μl PBS was used to resuspend every 1.5 mg antibody-bead mixture. The beads were suspended and added to the prepared nuclear extracts. The slurry was incubated for 2 h at 4° C. with gentle mixing. The beads were then collected by centrifuging at 18,000 g for 5 min, and washed twice with PBS+0.1% Triton X-100. After a final centrifugation step, every 1.5 mg of beads was suspended with 150 μl of PBS. The SF3b complexes were tested for [^3H]-labelled pladienolide probe binding ([^3H]—PB), synthesized as previously described (Kotake et al., 2007). 100 μl binding reactions were prepared with 50 μl bead slurry and by adding varying concentrations of PB or PB—OH, and after 30 min pre-incubation, 2.5 nM [^3H]—PB was added. The mixture was incubated for 30 min, and luminescence signals were read using a MicroBeta2 Plate Counter (PerkinElmer). Prism 6 (Graphpad) was used for non-linear regression curve fitting of the data. • a. • b. HeLa nuclear extract preparation (for in vitro splicing modulation assay below) • c. HeLa S3 cell pellets were resuspended in hypotonic buffer (10 mM HEPES pH 7.9, 1.5 mM MgCl2, 10 mM KCl, 0.2 mM PMSF, and 0.5 mM DTT) and the suspension was brought up to a total of 5 packed cell volume (PCV). After centrifugation, the supernatant was discarded, and the cells were brought up to 3 PCV with hypotonic buffer and incubated on ice for 10 minutes. Cells were lysed using a dounce homogenizer and then centrifuged. The supernatant was discarded, and the pellet was resuspended with ½ packed nuclear volume (PNV) of low salt buffer (20 mM HEPES pH 7.9, 1.5 mM MgCl2, 20 mM KCl, 0.2 mM EDTA, 25% glycerol, 0.2 mM PMSF, 0.5 mM DTT), followed by ½ PNV of high salt buffer (same as low salt buffer except 1.4 M KCl was used). The nuclei were gently mixed for 30 minutes before centrifuging. The supernatant (nuclear extract) was then dialyzed into storage buffer (20 mM HEPES pH 7.9, 100 mM KCl, 0.2 mM EDTA, 20% glycerol, 0.2 mM PMSF, 0.5 mM DTT). Protein concentration was determined using NanoDrop 8000 UV-Vis spectrophotometer (ThermoFisher Scientific). • d. In vitro splicing assay (IVS)

[1] = system: Ad2 variant pre-mRNAs spliced in HeLa S3 nuclear extracts; experiment: In vitro splicing assay (IVS), RT-qPCR of spliced product; type: biochemical; conditions: for IC50: geometric mean; for Ratio Ad2.1/2.2: ratio of IVS IC50 Ad2.1 to Ad2.2
Method: as §1
All Ad2-derived (Pellizzoni et al., 1998) sequences were cloned into pcDNA3.1(+) vector (Promega) using 5′ EcoRI and 3′ XbaI restriction sites. The plasmids were linearized using XbaI and used as DNA templates in the in vitro transcription reactions. The FtzΔi intron-less plasmid (Luo and Reed, 1999) was linearized using EcoRI. All RNAs were in vitro transcribed and then purified using MEGAScript T7 (Invitrogen) and MegaClear (Invitrogen) kits, respectively. For splicing reactions using Ad2 variant pre-mRNAs, […] reactions were prepared using 8 μg nuclear extracts prepared from HeLa S3, 2 ng pre-mRNA, 0.2 ng FTZΔi, and varying concentrations of exemplary payloads or DMSO. After a 15 minute pre-incubation at 30° C., 1 μL splicing activation buffer (0.5 mM ATP, 20 mM creatine phosphate, 1.6 mM MgCl2) was added, and the reactions were incubated for 90 minutes at 30° C. The reactions were then quenched with 13 μL it DMSO, and 25 nL was used for RT-qPCR. RT-qPCR reactions were prepared using TaqMan RNA-to-CT 1-step kit (Life Technologies), RNA from splicing reactions, Ad2 (forward: […]; reverse: […]; probe: […]) and Ftz (forward: […]; reverse: […]; probe: […]) mRNA primer-probe sets. Prism 6 (Graphpad) was used for non-linear regression curve fitting of the formed spliced product and normalized to the control (DMSO) sample.

[2] = system: NCI-H1568 cells (high MCL1); experiment: Cell proliferation and viability, CellTiter-Glo, 72 hours; type: cell-based; conditions: for GI50: geometric mean
Method: Cell lines were maintained in RPMI-1640 (ATCC 30-2001) supplemented with 10% fetal bovine serum (FBS). The Panc lines were supplemented in addition with insulin and FBS up to 15% total.
Compounds for assay were prepared as stocks in 90% dimethyl sulfoxide (DMSO), assessed for purity by LC/MS, and serially diluted in DMSO using a low-volume liquid handler (VIAFLO ASSIST and VIAFLO II electronic 16-channel pipette, 0.5-12.5 μL) in an 11-point half-log serial dilution to create a master dose response (MDR) source used for all tests.
Transfer of compounds from the MDR source plate to cell assay-ready plates were accomplished directly by low-energy acoustic transfer (ATS100, EDC Biosystems). After transfer of compounds to the assay plate, the dose-response range experienced by cells was typically 10 μM-100 pM (5 logs), and final DMSO concentration in the assay was 0.1%, uniformly. Each assay plate was self-anchored containing vehicle/DMSO negative controls, medium-only/positive controls, and cidal control dose-responses of bortezomib and staurosporine. Assay-ready plates were heat-sealed and stored at −20° C. until used, no longer than one month.
A DMSO-matched time zero (T0) plate was read and then all other plates were incubated at 37° C. with 5% CO2 and 95% relative humidity until the end of assay. Cell proliferation and viability assays were performed 72 hours post-treatment depending on cell growth where at least one doubling would have occurred.
Assessment of viability and proliferation was by measurement of cell ATP content using CellTiter-Glo® Luminescent Cell Viability Assay reagent (Promega) according to the manufacturer's instructions (CellTiter-Glo® Luminescent Cell Viability Assay Technical Bulletin Instructions for Use of Product(s) G7570, G7571, G7572, G7573 Literature #TB288, Revised March 2015), using a microtiter plate reader (Envision, PE).
Cell proliferation was evaluated using the time zero (T0) signal as the positive control and the within-plate vehicle wells (DMSO) as the negative control. Data was converted to percent inhibition and falls into the range from −100% to 100% of growth where −100% equals a cidal response and 100% equals uninhibited or maximal growth. Cell growth at or near 0% is considered a static response.

[3] = Ad2.1 pre-mRNA substrate, read-out: qPCR-IVS-ATS GMean IC50 (nM) Ad2.1
[4] = Ad2.2 pre-mRNA substrate, read-out: qPCR-IVS-ATS GMean IC50 (nM) Ad2.2
[5] = 72 h, NCIH1568.1, -100% = cidal, 0% = static, 100% = uninhibited growth
[6] = NCI-H1568, 72 h, read-out: CTGlo-ATS GMean GI50 (nM) 72 h NCIH1568.1, 72 h, NCIH1568.1
[7] = NCI-H1568, 72 h, read-out: CTGlo-ATS GMean GI50 (nM) 72 h NCIH1568.1, NCIH1568.1 cells, 72 h
[8] = NCIH1568.1 cells, 72 h, −100% cidal, 0% static, 100% maximal growth
[9] = NCI-H1568, read-out: CTGlo-ATS GMean GI50 (nM) 72 h NCIH1568.1, NCIH1568.1 cells, 72 h

SMILES	IC50 (SF3b complexes) [nM]	IC50 [1, 3] [nM]	IC50 [1, 4] [nM]	Ratio Ad2.1/2.2 [1]	CTGlo-ATS Mean MinResponse % 72 h NCIH1568.1 [2, 5] [%]	GI50 [2, 6] [nM]	GI50 [2, 7] [nM]	CTGlo-ATS Mean MinResponse % 72 h NCIH1568.1 [2, 8] [%]	GI50 [2, 9] [nM]	GI50 ([2]; NCI-H1568, read-out: CTGlo-ATS GMean GI50 (nM) 72 h NCIH1568.1, 72 h, NCIH1568.1) [nM]
C/C(=C\c1cc(F)cc(N2CCN(C(=O)Cn3cccn3)CC2)c1)C1OC(=O)CC(O)CC[C@H](C)[C@@H](OC(=O)NC(C)CO)/C=C/C1C (stereo in doubt) [Compound 229, [(2R,3R,4E,6R,7S,10S)-2-[(E)-1-[3-fluoro-5-[4-(2-pyrazol-1-ylacetyl)piperazin-1-yl]phenyl]prop-1-en-2-yl]-10-hydroxy-3,7-dimethyl-12-oxo-1-oxacyclododec-4-en-6-yl] N-[(2S)-1-hydroxypropan-2-yl]carbamate]	17.1	329	12.2	27.000	−65.653	13.4	–	–	–	–
CC(=O)N1CCC(n2cnc3c(F)cc(/C=C(\C)[C@H]4OC(=O)C[C@H](O)CC[C@H](C)[C@@H](OC(=O)N5CCN(C)CC5)/C=C/[C@@H]4C)cc32)CC1 [Compound 146]	22.7	11.1	12.7	–	–	–	2.79	−88.975	–	–
C/C(=C\c1cc(F)cc(N2CCCN(CC3CC3)C2=O)c1)[C@H]1OC(=O)C[C@H](O)CC[C@H](C)[C@@H](OC(=O)N2CCN(C)CC2)/C=C/[C@@H]1C [Compound 80]	1.59	6.64	8.57	–	–	–	2.68	−69.196	–	–
COc1ccc(-n2nnc3c(F)cc(/C=C(\C)[C@H]4OC(=O)C[C@H](O)CC[C@H](C)[C@@H](OC(=O)N5CCN(C)CC5)/C=C/[C@@H]4C)cc32)cc1 [Compound 165]	18.7	29.5	15.2	–	–	–	–	−78.159	10	–
C/C(=C\c1cc(F)cc(N2CCN(C(=O)Cn3cccn3)CC2)c1)[C@H]1OC(=O)C[C@H](O)CC[C@H](C)[C@@H](OC(=O)N2CCN(Cc3cccnc3)CC2)/C=C/[C@@H]1C [Compound 252, [(2S,3S,4E,6R,7S,10R)-2-[(E)-1-[3-fluoro-5-[4-(2-pyrazol-1-ylacetyl)piperazin-1-yl]phenyl]prop-1-en-2-yl]-10-hydroxy-3,7-dimethyl-12-oxo-1-oxacyclododec-4-en-6-yl] 4-(pyridin-3-ylmethyl)piperazine-1-carboxylate]	21.8	22.6	27.4	0.825	−76.109	10.3	–	–	–	–
C/C(=C\c1cc(F)cc(N2CCN(C(=O)CCO)CC2)c1)[C@H]1OC(=O)C[C@H](O)CC[C@H](C)[C@@H](OC(=O)N2CCN(C)CC2)/C=C/[C@@H]1C [Compound 155]	2.21	8.45	5.88	–	–	–	–	−83.475	1.91	–
C/C(=C\c1cc(F)cc(N2CCN(C(=O)Cn3cccn3)CC2)c1)[C@H]1OC(=O)C[C@H](O)CC[C@H](C)[C@@H](OC(=O)NCc2ccncc2)/C=C/[C@@H]1C [Compound 221, [(2S,3S,4E,6R,7S,10R)-2-[(E)-1-[3-fluoro-5-[4-(2-pyrazol-1-ylacetyl)piperazin-1-yl]phenyl]prop-1-en-2-yl]-10-hydroxy-3,7-dimethyl-12-oxo-1-oxacyclododec-4-en-6-yl] N-(pyridin-4-ylmethyl)carbamate]	9.33	9.6	4.86	1.973	−66.213	11.4	–	–	–	–
C/C(=C\c1cc(F)c2cnn(C3CCN(S(C)(=O)=O)CC3)c2c1)[C@H]1OC(=O)C[C@H](O)CC[C@H](C)[C@@H](OC(=O)N2CCN(C)CC2)/C=C/[C@@H]1C [Compound 196]	13.2	30	19.6	1.529	−90.418	–	–	–	–	1.83
C/C(=C\c1cc(F)cc(N(C)C2CCN(C(=O)C(F)(F)F)CC2)c1)[C@H]1OC(=O)C[C@H](O)CC[C@H](C)[C@@H](OC(=O)N2CCN(C)CC2)/C=C/[C@@H]1C [Compound 181]	8.2	19.7	19.2	–	–	–	–	−85.226	9.74	–
C/C(=C\c1cc(F)cc(N(C)C2CCN(C(=O)c3cn(C)cn3)CC2)c1)[C@H]1OC(=O)C[C@H](O)CC[C@H](C)[C@@H](OC(=O)N2CCN(C)CC2)/C=C/[C@@H]1C [Compound 190]	6.55	33.5	15.7	–	–	–	–	−69.142	19.8	–
CC(=O)N1CCC(N(C)c2cc(F)cc(/C=C(\C)[C@H]3OC(=O)C[C@H](O)CC[C@H](C)[C@@H](OC(=O)N4CCN(C)CC4)/C=C/[C@@H]3C)c2)CC1 [Compound 177]	2.38	18.2	10.3	–	–	–	–	−80.643	3.62	–
